Here are results for two compounds from patent US20230391817A1, “5ALPHA-HYDROXY-6BETA-[2-(1-H-IMIDAZOL-4-YL)-ETHYLAMINO]-CHOLESTAN-3BETA-OL ANALOGUES AND PHARMACEUTICAL COMPOSITIONS COMPRISING SAME FOR USE IN THE TREATMENT OF CANCER” (priority 2020, published 2023).

The subject of series [1] is murine 4T1 mammary tumor cells. Briefly: Cell viability of 4T1 cells, MTT. It counts as cell-based. Particulars: for IC50: Mus musculus, 4T1, MTT, 48 h. The method, then: (§1) Cell viability tests were performed on murine 4T1 mammary tumor cells characterized as triple negative (HER2-, ER-, PR-).
(§2) For this experiment, a cell culture medium was prepared. The culture medium consisted of Dulbecco's Modified Eagle Medium (DMEM, sold by Westburg as LO BE12-604F), comprising 4.5 g/L glucose with L-glutamine, to which 10% fetal calf serum (FCS) and 50 U/ml penicillin/streptomycin are added. The 4T1 cells were introduced into this culture medium.
(§3) 96-well plates were seeded with 2000 4T1 cells per well. After 72 hours (h) of culture under normal condition, i.e. in an incubator at 37° C. at […], the 4T1 cells were treated for 48 h with DX101, DX103, DX111, DX123, DX125, DX127 and DX129 at 100 nM, 1 μM, 2.5 μM and 10 μM. A control condition (CTL) is also performed in parallel using the previously described protocol without treatment with the molecules DX101, DX103, DX111, DX123, DX125, DX127 or DX129.
The cell viability is measured by three different methods. For the first method, MTT labeling is performed at 48 hours. This test is based on the use of the tetrazolium salt MTT (3-(4,5-dimethylthiazol-2-yl)-2,5-diphenyltetrazolium bromide). Tetrazolium is reduced by mitochondrial succinate dehydrogenase in active live cells to formazan, a purple colored precipitate. The amount of precipitate formed is proportional to the amount of live cells but also to the metabolic activity of each cell. Thus, a simple determination of the optical density at 550 nm by spectroscopy makes it possible to determine the relative amount of live and metabolically active cells. After 48 hours, the medium is aspirated, and the cells are incubated with MTT (0.5 mg/ml in culture medium) for about 3 hours. The MTT solution is aspirated and the purple crystals are dissolved in dimethyl sulfoxide (DMSO). The OD (optical density) is measured at 550 nm. The percentage of viability is then determined in each well against the CTL and the IC50 (concentration at which 50% of cells remain alive) is determined for each molecule with the Prism software using a nonlinear regression curve (log(inhibitor) vs. Response).

Series [2] has as its system MCF-7 breast tumor cells. Briefly: Microscope observation of treated MCF-7 cells. It counts as cell-based. Here is the method: (§4) A cell viability test was performed on MCF-7 (Michigan Cancer Foundation-7) breast tumor cells […] (ER(+) cells).
(§5) The MCF-7 cells are in a cell culture medium identical to that of Example 5 and are seeded in 12-well plates at 50 000 cells per well. 24 hours after seeding, the cells are treated with vehicle solvate comprising water and ethanol with a 1% o ratio of ethanol, 3β-fluoro-5α-hydroxy-6β-[2-(1H-imidazol-4-yl)ethylamino]cholestane, and 5α-hydroxy-6β-[2-(1H-imidazol-4-yl)ethylamino]cholestan-3β-ol at 1, 2.5 or 5 μM. The cells are observed under an inverted microscope and photographed via the microscope camera at 24 h and 48 h. The morphological changes in the cells at 1 μM are very small. […] The effects are more marked at 2.5 μM and 5 μM with an increase in the number of dead cells. […] After 24 h of treatment with 3β-fluoro-5α-hydroxy-6β-[2-(1H-imidazol-4-yl)ethylamino]-cholestane at 5 μM, 99% of the observed cells are supernatant, reflecting cell death, and 1% of the cells are adherent and show white vesicles. […] The cytostatic effect is illustrated by an inhibition of cell proliferation.

Series [3] can be described thus: Oral pharmacokinetic study in rat, LC/MS assay in plasma (Examples 21-24). Particulars: 50 mg/kg. It counts as in vivo. The method, then:
The following study is an LC/MS assay in plasma of the various molecules over 3 days (11 measurement points in the end). The graphs are always presented in comparison with DX101 which is the reference.
Plasma sampling at 0 (without injection), 5, 10, 15, 30 min, 1 h, 4 h, 8 h, 24 h, 48 h, 72 h (11 points)

Series [4] has as its system MCF-7 breast tumor cells. Briefly: cells. It counts as cell-based. Particulars: for cell viability in MTT compared with the control: 1, 2.5 or 5 μM, 48 h; for viability at 5 µM: Homo sapiens, MCF7, 48 h, read-out: percentage of cell viability relative to the control group. Here is the method: as §4, §5
The cell viability is measured by labeling with MTT at 48 hours. This test is based on the use of the tetrazolium salt MTT (3-(4,5-dimethylthiazol-2-yl)-2,5-diphenyltetrazolium bromide). Tetrazolium is reduced by mitochondrial succinate dehydrogenase in active living cells to formazan, a purple colored precipitate. The amount of precipitate formed is proportional to the amount of living cells but also to the metabolic activity of each cell. Thus, a simple determination of the optical density at 540 nm by spectroscopy makes it possible to determine the relative amount of living and metabolically active cells. After 48 hours, the medium is aspirated, and the cells are washed with phosphate-buffered saline (PBS) and then incubated with MTT (0.5 mg/ml in PBS) for about 2 hours. The MTT solution is aspirated and the purple crystals are dissolved in dimethyl sulfoxide (DMSO). The OD (optical density) is measured at 540 nm.
The control group is prepared in a similar manner to the groups studied without the addition of the molecules studied in the present text. […] For a concentration of 5 μM, the viability is close to 0%. This reflects the ability of the compound of formula (I) to kill mammary tumor cells.

The subject of series [5] is murine 4T1 mammary tumor cells. Briefly: Cell viability of 4T1 cells, LDH. It counts as cell-based. The note with it: Mus musculus, 4T1, LDH, 48 h. The method, then:
as §1, §2, §3
For the second method, the percentage of viability is determined by assaying the activity of the enzyme LDH (lactate dehydrogenase) in cell supernatants using the non radioactive cytotoxicity assay kit (Promega). LDH is an enzyme released in the supernatant of dead cells. The higher the LDH activity in the supernatant, the greater the cell death. In this enzyme assay, the LDH released converts a violet tetrazolium salt to a red colored formazan, absorbing at 490 nm. The intensity of the red color is proportional to the number of dead cells. After 48 h of treatment, the supernatants are transferred to a new 96-well plate and incubated for 30 minutes in the presence of substrate mix at room temperature. The reaction is stopped with stop solution reagent and the absorbance is determined at 490 nm. The percentage of cell death is determined here using a 100% maximum LDH activity control (made from untreated cells incubated in the presence of lysis solution for 45 minutes at 37° C. just prior to addition of the substrate mix), and the cell viability in each well is then deduced from this percentage. The IC50 is then determined as explained in the preceding paragraph.

[6] abbreviates: log of IC50 in μM, read-out: Mean LogIC50 (±SEM) (converted).

As a reminder, the viability is a read-out of living cells in per cent, often relative to untreated cells. Turning to `CC(C)CCC[C@@H](C)[C@H]1CC[C@H]2[C@@H]3C[C@@H](NCCc4c[nH]cn4)[C@@]4(O)C[C@@H](O)CC[C@]4(C)[C@H]3CC[C@]12C` [DX101, 5α-hydroxy-6β-[2-(1H-imidazol-4-yl)ethylamino]cholestan-3β-ol, reference compound], the IC50 is 4.37 µM in series [1] (setting [6]), 4.4 µM in series [1] (read-out: IC50), 3.24 µM in series [5] (setting [6]) and 3.24 µM in series [5] (read-out: IC50). Further, the “morphological changes in the cells” value in the series with MCF-7 breast tumor cells [2] (1 μM, 24 h) is given as “Only a few white vesicles”. Besides, the “Area under the curve” value in series [3] (oral, plasma, Example 24) was 3019; in series [3] (oral, plasma, Examples 21-23) it was 143297. For the same compound, the Max concentration in series [3] (oral, plasma, Example 24) is listed as 150 nM; in series [3] (oral, plasma, Examples 21-23), 140 nM. The “cell viability in MTT compared with the control” value with MCF-7 breast tumor cells [4] is “dose-dependent decrease”. In addition, the viability at 5 µM in the series with MCF-7 breast tumor cells [4] was about 0%.

`CC(C)CCC[C@@H](C)[C@H]1CC[C@H]2[C@@H]3C[C@@H](NCCc4c[nH]cn4)[C@@]4(O)C[C@@H](F)CC[C@]4(C)[C@H]3CC[C@]12C` [DX111, 3β-fluoro-5α-hydroxy-6β-[2-(1H-imidazol-4-yl)ethylamino]cholestane]: in series [1] (4T1, Tables 1a, 1b and 1c (MTT, LDH, Green Cytotoxicity Assay)), the “cytotoxic activity compared with DX101” value is “higher”. Besides, in series [1] (setting [6]), the IC50 is 1.7 µM. Also, in series [1] (read-out: IC50), the IC50 was 1.69 µM. Besides, in the series with MCF-7 breast tumor cells [2] (1 μM, 24 h), the “morphological changes in the cells” value is recorded as “Only a few white vesicles”. In addition, in the series on MCF-7 breast tumor cells [2] (2.5 μM, 24 h), the “morphological changes in the cells” value was “numerous white vesicles and detached cells”. In addition, the “cytostatic effect compared with 24 h” value in the series with MCF-7 breast tumor cells [2] (2.5 μM, 48 h) is recorded as “stronger cytostatic effect”. For the same compound, in the series with MCF-7 breast tumor cells [2] (5 μM, 24 h), the “cells that are adherent and show white vesicles” value is on record as 1%; the “observed cells that are supernatant (cell death)” value stood at 99%. Further, in the series on MCF-7 breast tumor cells [2] (5 μM, 48 h), the “morphological changes in the cells” value was “all the cells are supernatant”. Moreover, the “effect compared with 5α-hydroxy-6β-[2-(1H-imidazol-4-yl)ethylamino]cholestan-3β-ol” value in the series with MCF-7 breast tumor cells [2] (24 h of observation) is given as “greater or equal effect”. For the same compound, the “effect compared with 5α-hydroxy-6β-[2-(1H-imidazol-4-yl)ethylamino]cholestan-3β-ol” value in the series with MCF-7 breast tumor cells [2] (48 h of observation) was “similar”. Moreover, in series [3] (in vivo, po), the “Area under the curve” value is 368921, the Max concentration was determined as 515 nM, the “Time for Cmax” value is recorded as 240 min and the “bioavailability / extent of absorption compared with DX101” value is “three-fold higher absorption”. In series [3] (in vivo, po), the “maximum concentration compared with DX101” value is “higher maximum concentration” and the “speed of absorption compared with DX101” value is listed as “faster absorption”. Moreover, in the series with MCF-7 breast tumor cells [4], the “cell viability in MTT compared with the control” value is given as “dose-dependent decrease” and the viability at 5 µM was about 0%. For the same compound, the IC50 in series [5] (setting [6]) was 1.86 µM. The IC50 in series [5] (read-out: IC50) amounted to 1.88 µM.
